# Results published in patent publication US10766940B2, “Brain penetrant amylin receptor based peptides for Alzheimer's disease” (The Governors of the University of Alberta, priority 2016, dated 2020).
# Residues, ends and D or L forms follow the SMILES beside them. No end group written: not given here.
# Columns and labels:
# [1] = molecular target: T1, AMY1 (Homo sapiens, UniProt O60894+P30988); test: Flow cytometry cell uptake, AMY1 cells; format: cell-based; conditions: 10 μM, 37° C., 60 min
# T1 construct: expressed in transfected cells
# [2] = system: TgCRND8 AD mouse model; test: Morris Water Maze, chronic icv infusion of AC253; format: in vivo
# Description: Age-matched, wild-type littermate (C57BL/6 background) male or female mice were used. […] Heterozygous CTR (het CTR) mice (C57BL/6J background) with a 50% deletion of CTR were obtained from Drs. R. A. Davey and J. D. Zajac (Department of Medicine, Austin Health, University of Melbourne, Heidelberg, Victoria, Australia). Mice were housed individually under standard laboratory conditions (12/12-h light/dark cycle, lights on at 0600 h) with a room temperature of 21° C. Water and food were available ad libitum unless otherwise indicated. All tests were performed during the light phase between 0900 and 1600 h in accordance with institutional guidelines. The mice were 3 months old at the onset of testing.
# A microcannula was stereotaxically inserted into the right cerebral ventricle (0.12 right lateral and 0.06 posterior to bregma, 3 mm deep) of isofluorane-anesthetized mice, and connected to an osmotic pump (Alzet; model 2004) implanted subcutaneously on the back of the mouse. The pump infused a solution of either aCSF or AC253 in aCSF into the ventricle at a rate of […] to yield an estimated concentration of 1 μM AC253 in the mouse CSF at equilibrium based upon the known CSF dynamics in the mouse brain (Di Pardo et al., 2012). The pump reservoir was replaced every 28 days for a total of 5-6 months. Animals were monitored on a daily basis for signs of treatment-related toxicity, such as poor grooming, lethargy, loss of bodyweight, and abnormal behavior. […]
# The MWM apparatus consisted of a 2 m circular blue plastic pool filled with water (24-25° C.), which was rendered opaque by the addition of non-toxic white paint. […] The behavior of a mouse was recorded by a video camera connected to a video tracking system (HVS Image 2100, HVS Image, Buckingham, UK).
# The pool was surrounded by a white curtain, and a mouse was released facing the wall at points (N, E, S, W) which were chosen semi-randomly. […] Memory was evaluated in probe trial, administered on day 8 as the first trial of the day. […] Memory for the platform location was expressed as the percent of time spent in TQ.
# [3] = molecular target: T2, AMY3 receptor (Homo sapiens, UniProt O60896+P30988); test: Inhibition of hAmylin-evoked cAMP in AMY3-expressing HEK293 cells; format: cell-based; conditions: AMY3-HEK cells
# T2 construct: expressed in transfected cells; AMY3-293 / AMY3-HEK)
# T2 sequence (P30988 25-474): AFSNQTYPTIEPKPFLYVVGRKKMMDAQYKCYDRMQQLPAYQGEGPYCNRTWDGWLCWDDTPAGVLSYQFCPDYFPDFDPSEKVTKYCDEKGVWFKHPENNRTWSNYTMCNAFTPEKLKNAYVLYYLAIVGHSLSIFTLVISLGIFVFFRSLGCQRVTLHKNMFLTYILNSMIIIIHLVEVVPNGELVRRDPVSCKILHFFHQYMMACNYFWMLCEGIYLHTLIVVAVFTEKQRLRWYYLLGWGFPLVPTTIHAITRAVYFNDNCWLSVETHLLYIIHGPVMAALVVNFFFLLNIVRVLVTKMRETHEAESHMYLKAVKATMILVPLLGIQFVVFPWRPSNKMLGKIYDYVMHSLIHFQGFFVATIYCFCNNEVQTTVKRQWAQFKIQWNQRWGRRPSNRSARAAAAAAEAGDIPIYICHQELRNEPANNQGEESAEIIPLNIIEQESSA
# T2 sequence (O60896 24-148 partner): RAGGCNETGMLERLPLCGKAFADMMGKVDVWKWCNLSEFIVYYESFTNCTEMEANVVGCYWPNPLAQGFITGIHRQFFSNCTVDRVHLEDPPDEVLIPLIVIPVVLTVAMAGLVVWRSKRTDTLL
# Description: a) To investigate peptides amylin receptor affinity, GFP-positive HEK293 cells that stably expressed AMY3 receptor (AMY3-293) as previously reported (Fu et al., 2012) were used. For control, GFP-positive HEK293 wild type cells were used. HEK293 cells were cultured in DMEM (Invitrogen) with 10% FBS (Invitrogen) and grown at 37° C., 5% C02. For cAMP measurements, AMY3-293 cells were plated on 24-well plates overnight. Cells were stimulated for 30 minutes with hAmylin over a concentration range (1 pM-10 μM). Cellular cAMP levels were measured using a parameter cyclic AMP assay kit (R&D Systems) according to the manufacturer's instructions. For in-cell Western blot cAMP quantification, mouse monoclonal anti-cAMP (R&D Systems) was used as a primary antibody, and IRDye 800 goat anti mouse antibody (LI-COR) was used as a secondary antibody. Plates were imaged using an Odyssey Infrared Imaging System (LI-COR), and the integrated intensity was normalized to the total cell number on the same well. Data was plotted, and non-linear regression was fitted with four parameters using Prism software (GraphPad Software, La Jolla, Calif.).
# e) For cAMP measurements, AMY3-293 cells were plated on 24-well plates overnight. […] Cellular cAMP levels were measured using a parameter cyclic AMP assay kit (R&D Systems) according to the manufacturer's instructions. […]
# [4] = Lipophilicity, shake flask 1-octanol/water partition; format: physicochemical
# Description: Peptides hydrophobicity was determined using the shake flask method and 1-octanol/water partition coefficient (log Po/w) was determined. […] Peptide concentration (area) in both phases (1-octanol and water) were analyzed by RP-HPLC. The final log Po/w value was calculated by dividing the concentration (C) of the peptide in the two phases as presented by the area under the peak (partition coefficients=C1-octanol/Cwater).
# [5] = system: TgCRND8 and wild-type mice; test: Daily monitoring for treatment-related toxicity during chronic icv infusion; format: in vivo, mouse; conditions: chronic icv infusion 5-6 months
# Description: A microcannula was stereotaxically inserted into the right cerebral ventricle (0.12 right lateral and 0.06 posterior to bregma, 3 mm deep) of isofluorane-anesthetized mice, and connected to an osmotic pump (Alzet; model 2004) implanted subcutaneously on the back of the mouse. The pump infused a solution of either aCSF or AC253 in aCSF into the ventricle at a rate of […] to yield an estimated concentration of 1 μM AC253 in the mouse CSF at equilibrium based upon the known CSF dynamics in the mouse brain (Di Pardo et al., 2012). The pump reservoir was replaced every 28 days for a total of 5-6 months. Animals were monitored on a daily basis for signs of treatment-related toxicity, such as poor grooming, lethargy, loss of bodyweight, and abnormal behavior. After completion of medication and behavioral tests, all mice were killed with an overdose of isoflourane anesthetic, perfused transcardially with saline, and the brains were harvested. The left hemisphere per animal was frozen for biochemical analysis (Western blot, ELISA), and the right hemisphere retained for histological analysis.
# T1 sequence (O60894 27-148 partner, one chain of several): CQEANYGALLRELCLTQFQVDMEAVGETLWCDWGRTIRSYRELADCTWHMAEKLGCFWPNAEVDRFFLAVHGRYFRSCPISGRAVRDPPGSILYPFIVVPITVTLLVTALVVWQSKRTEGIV
Molecule,flow cytometry binding to AMY1 cells [1],"latencies to locate the hidden platform (MWM) ([2]; TgCRND8 mice at 8 months of age, after 5 months of icv treatment, vs littermates receiving CSF)","memory in probe trials for location of the target quadrant ([2]; TgCRND8 mice, 8 months of age)","memory deficits in MWM, Wt controls ([2]; wild-type littermate controls, icv AC253 or CSF, 8 months of age)",block of hAmylin evoked cAMP increase [3],Partition coefficient [4],logP [4],signs of off-target effects or changes in body weight [5]
LGRLSQELHRLQTY (LGRLSQELHRLQTY-NH2) [R14],selective and significant specific binding,–,–,–,–,–,–,–
CC(C)C[C@H](NC(=O)[C@H](CCCNC(=N)N)NC(=O)CNC(=O)[C@@H](N)CC(C)C)C(=O)N[C@@H](CO)C(=O)N[C@@H](CCC(N)=O)C(=O)N[C@@H](CCC(=O)O)C(=O)N[C@@H](CC(C)C)C(=O)N[C@@H](Cc1c[nH]cn1)C(=O)N[C@@H](CCCNC(=N)N)C(=O)N[C@@H](CC(C)C)C(=O)N[C@@H](CCC(N)=O)C(=O)N[C@H](C(=O)N[C@@H](Cc1ccc(O)cc1)C(=O)N1CCC[C@H]1C(=O)N[C@@H](CCCNC(=N)N)C(=O)N[C@H](C(=O)N[C@@H](CC(N)=O)C(=O)N[C@H](C(=O)NCC(=O)N[C@@H](CO)C(=O)N[C@@H](CC(N)=O)C(=O)N[C@H](C(=O)N[C@@H](Cc1ccc(O)cc1)C(N)=O)[C@@H](C)O)[C@@H](C)O)[C@@H](C)O)[C@@H](C)O [AC253],–,marked improvement in latencies to locate the hidden platform,enhanced and persistent memory in probe trials,no memory deficits,blocked the hAmylin evoked cAMP increase in a dose-dependent manner,1.05,-1.2,none of the mice receiving AC253 showed any signs of off-target effects
CC(C)C[C@H](NC(=O)[C@H](CCC(=O)O)NC(=O)[C@H](CCC(N)=O)NC(=O)[C@@H](N)CO)C(=O)N[C@@H](Cc1c[nH]cn1)C(=O)N[C@@H](CCCNC(=N)N)C(=O)N[C@@H](CC(C)C)C(=O)N[C@@H](CCC(N)=O)C(=O)N[C@H](C(=O)N[C@@H](Cc1ccc(O)cc1)C(=O)N1CCC[C@H]1C(=O)N[C@@H](CCCNC(=N)N)C(N)=O)[C@@H](C)O [R5] (H-SQELHRLQTYPR-NH2; N-terminus assumed),selective and significant specific binding,–,–,–,–,–,–,–
